Test system: Neuro-2a murine neuroblastoma cells
Assay: HSV replication in vitro, plaque titration on Vero cells
Type: cell-based
Conditions: 50 μM 5-FU in growth medium; first evident at 48 h post-infection
Procedure: M012 replication was compared to R3659 replication over time in murine Neuro-2a tumor cells at both high (5.0) and low (0.1) MOI. Infected cells were grown in either growth medium alone or growth medium containing 5-FC (500 μM) or 5-FU (50 μM) by determining viral titers at 12, 24, 48, 72, and 96 h post-infection in the presence or absence of 500 μM 5-FC or 50 μM 5-FU. Virus recovery at the different time points was determined by titering on Vero cells. Experiments were performed in duplicate. Inhibition was most significant at high MOI, with P=0.002.
To establish replication competence of M012 in murine tumor cell lines in vitro, Neuro-2a murine neuroblastoma cells were infected with either the parent Dg134.5 HSV, R3659, or M012 using a low (0.1) or high (5.0) MOI. To determine if high concentrations of 5-FC might interfere with HSV replication, cells were incubated in the presence of either 500 μM 5-FC or 50 μM 5-FU, or media alone and infected cells were harvested at 12, 24, 48, 72, and 96 h post-infection. Total PFU recovered at each time point was determined by plaque titration on Vero cells (FIG. 9). At both MOI, M012 replication in DMEM alone was similar to its parent virus, R3659. […] The addition of 5-FC to the growth medium following infection inhibited M012 replication, but had no effect on R3659 replication at either MOI. […]

O=c1[nH]cc(F)c(=O)[nH]1 [5-FU, 5-fluorouracil]
reduction in replication of M012 or R3659: 1.0-2.0 log

Reference: US20070225245A1, “Viral vector driven mutant bacterial cytosine deaminase gene and uses thereof” (priority 1998, published 2007)
